According to patent US4012382A, “α-Amino and α-formyl-α-(p-acyloxyphenyl)acetamidocephalosporanic acid derivatives” (priority 1974, dated 1977):
Values after ≈ are worked out from the molar mass of the structure shown.

Key:
D. pneumoniae A9585 = experiment: MIC, 2-fold broth dilution, D. pneumoniae A9585; assay type: cell-based; details: Streptococcus pneumoniae, 10-3 dilution of overnite broth culture, 45% AAB + 5% serum + 50% NB
Method: (§1) *45% AAB + 5% serum + 50% NB
(§2) **Dilution of overnite broth culture
(§3) Minimal inhibitory concentrations were determined by the 2-fold broth dilution method utilizing equimolar concentrations of each compound.

Str. pyogenes A9604 = experiment: MIC, 2-fold broth dilution, Str. pyogenes A9604; assay type: cell-based; details: Streptococcus pyogenes, 10-3 dilution of overnite broth culture, 45% AAB + 5% serum + 50% NB
Method: as §1, §2, §3

S. aureus Smith A9537 = experiment: MIC, 2-fold broth dilution, S. aureus Smith A9537; assay type: cell-based; details: Staphylococcus aureus, SMITHA9537, Nutrient Broth, 10-4
Method: as §3

S. aureus BX1633 A9606 = experiment: MIC, 2-fold broth dilution, S. aureus BX1633 A9606; assay type: cell-based; details: Staphylococcus aureus, BX1633A9606, Nutrient Broth
Method: as §3

[1] = system: S. aureus Meth-Res A15097; experiment: MIC, 2-fold broth dilution, S. aureus Meth-Res A15097; assay type: cell-based; details: Staphylococcus aureus; Nutrient Broth; 10-3
Method: as §3

Sal. enteritidis A9531 = experiment: MIC, 2-fold broth dilution, Sal. enteritidis A9531; assay type: cell-based; details: Salmonella enterica, Nutrient Broth, 10-4
Method: as §3

E. coli Juhl A15119 = experiment: MIC, 2-fold broth dilution, E. coli Juhl A15119; assay type: cell-based; details: Escherichia coli, JUHLA15119; Nutrient Broth; 10-4
Method: as §3

E. coli A9675 = experiment: MIC, 2-fold broth dilution, E. coli A9675; assay type: cell-based; details: Escherichia coli, Nutrient Broth, 10-4
Method: as §3

K. pneumoniae A9977 = experiment: MIC, 2-fold broth dilution, K. pneumoniae A9977; assay type: cell-based; details: Klebsiella pneumoniae, Nutrient Broth, 10-4
Method: as §3

K. pneumoniae A15130 = experiment: MIC, 2-fold broth dilution, K. pneumoniae A15130; assay type: cell-based; details: Klebsiella pneumoniae, Nutrient Broth, 10-4
Method: as §3

Pr. mirabilis A9900 = experiment: MIC, 2-fold broth dilution, Pr. mirabilis A9900; assay type: cell-based; details: Proteus mirabilis, Nutrient Broth, 10-4
Method: as §3

Pr. morganii A15153 = experiment: MIC, 2-fold broth dilution, Pr. morganii A15153; assay type: cell-based; details: Morganella morganii, Nutrient Broth, 10-4
Method: as §3

Ps. aeruginosa A9843A = experiment: MIC, 2-fold broth dilution, Ps. aeruginosa A9843A; assay type: cell-based; details: Pseudomonas aeruginosa
Method: as §3

Ser. marcescens A20019 = experiment: MIC, 2-fold broth dilution, Ser. marcescens A20019; assay type: cell-based; details: Serratia marcescens, Nutrient Broth, 10-4
Method: as §3

Ent. cloacae A9656 = experiment: MIC, 2-fold broth dilution, Ent. cloacae A9656; assay type: cell-based; details: Enterobacter cloacae, Nutrient Broth, 10-4
Method: as §3

Ent. cloacae A9657 = experiment: MIC, 2-fold broth dilution, Ent. cloacae A9657; assay type: cell-based; details: Enterobacter cloacae, Nutrient Broth, 10-4
Method: as §3

Ent. cloacae A9659 = experiment: MIC, 2-fold broth dilution, Ent. cloacae A9659; assay type: cell-based; details: Enterobacter cloacae, Nutrient Broth, 10-4
Method: as §3

[2] = Hydrolysis in human serum (bioautographed paper chromatography); assay type: in vitro ADME
Method: (§4) Solutions of 0.5 mg./ml. of 7-D-(-)α-amino-α-p(-acetoxyphenylacetamido)desacetoxycephalosporanic acid (p-acetoxycephalexin) in normal saline and in human serum were prepared. Standard solutions of 0.5 mg./ml. of 7-D-(-)α-amino-α-p(-hydroxyphenylacetamido)desacetoxycephalosporanic acid (p-hydroxycephalexin) were also prepared in both normal saline and human serum.
(§5) All the above solutions were incubated at 37° C. with shaking and sampled for chromatography at time intervals of 0, 2, 4, 8 and 24 hours. The solutions, approximately 5 microliters per strip, were spotted on Whatman No. 1 half-inch strips which were dried and developed in a solvent system containing 80 parts butylacetate; 15 parts n-butanol; 40 parts acetic acid; and 24 parts water. The strips were then bioautographed on plates seeded with bacillus subtilis at a pH of 6.0.

[3] = Stability in normal saline (bioautographed paper chromatography); assay type: physicochemical; details: 0.5 mg./ml. in normal saline, 37° C., sampled 0-24 hours
Method: as §4, §5

Compound | MIC (D. pneumoniae A9585) [µg/mL] | MIC (Str. pyogenes A9604) [µg/mL] | MIC (S. aureus Smith A9537) [µg/mL] | MIC (S. aureus Smith A9537; + 50% serum) [µg/mL] | MIC (S. aureus BX1633 A9606; 10-2) [µg/mL] | MIC (S. aureus BX1633 A9606; 10-3) [µg/mL] | MIC [1] [µg/mL] | MIC (Sal. enteritidis A9531) [µg/mL] | MIC (E. coli Juhl A15119) [µg/mL] | MIC (E. coli A9675) [µg/mL] | MIC (K. pneumoniae A9977) [µg/mL] | MIC (K. pneumoniae A15130) [µg/mL] | MIC (Pr. mirabilis A9900) [µg/mL] | MIC (Pr. morganii A15153) [µg/mL] | MIC (Ps. aeruginosa A9843A) [µg/mL] | MIC (Ser. marcescens A20019) [µg/mL] | MIC (Ent. cloacae A9656) [µg/mL] | MIC (Ent. cloacae A9657) [µg/mL] | MIC (Ent. cloacae A9659) [µg/mL] | further results
CC(=O)Oc1ccc([C@@H](N)C(=O)N[C@@H]2C(=O)N3C(C(=O)O)=C(CSc4c[nH]nn4)CS[C@H]23)cc1 [RN 1396] | 0.04 | 0.04 | 0.16 (≈ 0.317 µM) | 1 | 4 (≈ 7.93 µM) | 0.6 (≈ 1.19 µM) | 8 (≈ 15.9 µM) | 0.3 (≈ 0.595 µM) | 2 (≈ 3.96 µM) | 8 (≈ 15.9 µM) | 1 (≈ 1.98 µM) | 2 (≈ 3.96 µM) | 0.5 (≈ 0.991 µM) | 63 (≈ 125 µM) | 125 (≈ 248 µM) | 125 (≈ 248 µM) | 125 (≈ 248 µM) | 1 (≈ 1.98 µM) | 32 (≈ 63.4 µM) | –
CC1=C(C(=O)O)N2C(=O)[C@@H](NC(=O)[C@H](N)c3ccc(O)cc3)[C@H]2SC1 [BL-S 578-4, 7-D-(-)α-amino-α-(p-hydroxyphenylacetamido)desacetoxycephalosporanic acid, reference compound] | 0.6 | 0.08 | 1.3 (≈ 3.58 µM) | 1.3 | 2 (≈ 5.5 µM) | 2 (≈ 5.5 µM) | 16 (≈ 44 µM) | 8 (≈ 22 µM) | 16 (≈ 44 µM) | 32 (≈ 88.1 µM) | 16 (≈ 44 µM) | 32 (≈ 88.1 µM) | 8 (≈ 22 µM) | > 125 | > 125 | > 125 | > 125 | 16 (≈ 44 µM) | > 125 | –
CC(=O)Oc1ccc([C@@H](N)C(=O)N[C@@H]2C(=O)N3C(C(=O)O)=C(C)CS[C@H]23)cc1 [RN 1394, 7-D(-)2-amino-2-(4-acetoxyphenylacetamido)desacetoxycephalosporanic acid] | 0.08 | 0.08 | 0.6 (≈ 1.48 µM) | 0.6 | 2 (≈ 4.93 µM) | 1 (≈ 2.47 µM) | 32 (≈ 78.9 µM) | 8 (≈ 19.7 µM) | 32 (≈ 78.9 µM) | 63 (≈ 155 µM) | 16 (≈ 39.5 µM) | 32 (≈ 78.9 µM) | 8 (≈ 19.7 µM) | > 125 | > 125 | > 125 | > 125 | 8 (≈ 19.7 µM) | > 125 | hydrolysis to the p-hydroxy form in human serum ([2]; 0.5 mg./ml. in human serum, 37° C., sampled 0-24 hours): quickly hydrolyzed to the p-hydroxy form; enzymatic hydrolysis to the p-hydroxy compound ([2]; enzymatic): hydrolyzed enzymatically; stability in normal saline ([3]; listed as 7-D-(-)α-amino-α-(p-acetoxyphenyl-acetamido)desacetoxycephalosporanic acid): stable in normal saline; stability in normal saline ([3]; listed as p-acetoxycephalexin): appears stable
N[C@@H](C(=O)N[C@@H]1C(=O)N2C(C(=O)O)=C(CSc3c[nH]nn3)CS[C@H]12)c1ccc(O)cc1 [Bl-S640, reference compound] | 0.04 | 0.04 | 0.3 (≈ 0.649 µM) | 1 | 1 (≈ 2.16 µM) | 0.6 (≈ 1.3 µM) | 4 (≈ 8.65 µM) | 0.6 (≈ 1.3 µM) | 0.5 (≈ 1.08 µM) | 4 (≈ 8.65 µM) | 0.5 (≈ 1.08 µM) | 1 (≈ 2.16 µM) | 0.5 (≈ 1.08 µM) | 63 (≈ 136 µM) | 125 (≈ 270 µM) | 125 (≈ 270 µM) | 125 (≈ 270 µM) | 0.5 (≈ 1.08 µM) | 32 (≈ 69.2 µM) | –
